Measurements as given in patent US20040038950A1, “Pharmaceutical composition for treating IL-1 related diseases or disorders” (priority 2002, published 2004).

Experiments:
[1] = test system: type II collagen mRNA; assay: Osteoarthritic rabbit model (ACLT), intraarticular injection, RT-PCR of type II collagen; type: in vivo; settings: rabbit ACLT knee, intraarticular once a week for 5 weeks
Method: (§1) Mature New Zealand White rabbits underwent bilateral anterior cruciate ligament transection (ACLT). ACLT was performed using a medial arthrotomy method. Postoperatively the animals were permitted cage (60 cm×60 cm×40 cm) activity without immobilization. The right knees received via intraartiticular injection DHEA, DHEA-pyruvate or DHEA+HA, 4 weeks after ACLT and once a week for 5 weeks. The left knees received 0.3 ml of intraarticular injection with control solution (carrier solution). After 9 weeks from ACLT, the animas were sacrificed.
(§2) Synovium (entire tissue) around the infrapatellar fat pads and cartilage tissue from the femoral condyle and the tibial plateau were harvested. The subsequent experimental procedure was the same as described in Test Example IV.

[2] = test system: TIMP-1 mRNA; assay: Osteoarthritic rabbit model (ACLT), intraarticular injection, RT-PCR of TIMP-1; type: in vivo; settings: rabbit ACLT knee, intraarticular once a week for 5 weeks
Method: as §1, §2

[3] = test system: MMP-1 mRNA; assay: Effect of IL-1β on MMP-1 mRNA expression in chondrocyte culture, RT-PCR; type: cell-based, human; settings: 1000 μg/ml of IL-1β, 3 days
Method: (§3) Sixteen hours prior to a treatment, the complete culture medium was replaced with a serum-free medium. Chondrocyte alginate bead cultures were then treated with IL-1β ([…], (Calbiochem) and DHEA (0, 10, 50 or 100 μM) for 3 days.
(§4) Total RNA from chondrocytes was extracted using RNeasy Mini Kit (QIAGEN). Reverse transcription from 1 μg of total RNA was conducted using First Strand cDNA Synthesis Kit (MBI Fermentas) according to manufacturer's recommendation with random hexamers. The resulting cDNA was then amplified by polymerase chain reaction using AccuPower PCR Premix (Bioneer, Korea) in a final volume of 20 μl using three thermocycler temperatures (30 sec at […], 30 sec at 60° C., and 30 sec at […]). All reactions were determined to be in the linear range of amplification with the cycle number ranging from 14 to 30. The PCR products were analyzed by separation on a 2% agarose gel followed by ethidium bromide staining. Following electrophoresis, photographs were taken and analyzed using a densitometric program (TINA; Raytest Isotopenmeβgerate, Germany). Integrated density values for the genes in question were then normalized to the glyceraldehyde-3-phosphate dehydrogenase (GAPDH) values for a semiquantitative assessment. After normalizing with respect to GAPDH, percentage increase or decrease was determined. Each experiment was repeated at least three times. […]

[4] = test system: MMP-3 mRNA; assay: Effect of IL-1β on MMP-3 mRNA expression in chondrocyte culture, RT-PCR; type: cell-based, human; settings: 100 μg/ml of IL-1β, 3 days
Method: as §3, §4

Row | Molecule | expression of type II collagen [1] | expression of TIMP-1 [2] | MMP-1 mRNA, increase [3] | MMP-3 mRNA, increase [4]
1 | CC(=O)C(=O)O[C@H]1CC[C@@]2(C)C(=CC[C@@H]3[C@@H]2CC[C@]2(C)C(=O)CC[C@@H]32)C1 [DHEA-pyruvate, DHEA-Pyruvate] | increased | increased | – | –
2 | IL-1β: recombinant human interleukin-1β (Calbiochem), used to induce MMP mRNA in chondrocytes | – | – | 470% | 310%
